According to ChEMBL document CHEMBL1909046, “DrugMatrix in vitro pharmacology data”:

Tests used:
[1] = target: Cytochrome P450 2C19 (Homo sapiens, UniProt P33261); details: bti-tn-5b1-4; note: in other assays of this panel Not Active means under 50% inhibition at 10 µM
[2] = target: Melanocortin receptor 4 (Homo sapiens, UniProt P32245); type: cell membranes, Membrane; details: hek293; note: in other assays of this panel Not Active means under 50% inhibition at 10 µM
[3] = target: Receptor tyrosine-protein kinase erbB-2 (Homo sapiens, UniProt P04626); assay: biochemical; type: cell-based, Insect cells; details: insect cells;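 note: inhibition of HER2 kinase enzyme activity, measured with Poly(Glu:Tyr) as the phosphorylation substrate; in other assays of this panel Not Active means under 50% inhibition at 10 µM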
Sequence of Receptor tyrosine-protein kinase erbB-2 (P04626 whole entry): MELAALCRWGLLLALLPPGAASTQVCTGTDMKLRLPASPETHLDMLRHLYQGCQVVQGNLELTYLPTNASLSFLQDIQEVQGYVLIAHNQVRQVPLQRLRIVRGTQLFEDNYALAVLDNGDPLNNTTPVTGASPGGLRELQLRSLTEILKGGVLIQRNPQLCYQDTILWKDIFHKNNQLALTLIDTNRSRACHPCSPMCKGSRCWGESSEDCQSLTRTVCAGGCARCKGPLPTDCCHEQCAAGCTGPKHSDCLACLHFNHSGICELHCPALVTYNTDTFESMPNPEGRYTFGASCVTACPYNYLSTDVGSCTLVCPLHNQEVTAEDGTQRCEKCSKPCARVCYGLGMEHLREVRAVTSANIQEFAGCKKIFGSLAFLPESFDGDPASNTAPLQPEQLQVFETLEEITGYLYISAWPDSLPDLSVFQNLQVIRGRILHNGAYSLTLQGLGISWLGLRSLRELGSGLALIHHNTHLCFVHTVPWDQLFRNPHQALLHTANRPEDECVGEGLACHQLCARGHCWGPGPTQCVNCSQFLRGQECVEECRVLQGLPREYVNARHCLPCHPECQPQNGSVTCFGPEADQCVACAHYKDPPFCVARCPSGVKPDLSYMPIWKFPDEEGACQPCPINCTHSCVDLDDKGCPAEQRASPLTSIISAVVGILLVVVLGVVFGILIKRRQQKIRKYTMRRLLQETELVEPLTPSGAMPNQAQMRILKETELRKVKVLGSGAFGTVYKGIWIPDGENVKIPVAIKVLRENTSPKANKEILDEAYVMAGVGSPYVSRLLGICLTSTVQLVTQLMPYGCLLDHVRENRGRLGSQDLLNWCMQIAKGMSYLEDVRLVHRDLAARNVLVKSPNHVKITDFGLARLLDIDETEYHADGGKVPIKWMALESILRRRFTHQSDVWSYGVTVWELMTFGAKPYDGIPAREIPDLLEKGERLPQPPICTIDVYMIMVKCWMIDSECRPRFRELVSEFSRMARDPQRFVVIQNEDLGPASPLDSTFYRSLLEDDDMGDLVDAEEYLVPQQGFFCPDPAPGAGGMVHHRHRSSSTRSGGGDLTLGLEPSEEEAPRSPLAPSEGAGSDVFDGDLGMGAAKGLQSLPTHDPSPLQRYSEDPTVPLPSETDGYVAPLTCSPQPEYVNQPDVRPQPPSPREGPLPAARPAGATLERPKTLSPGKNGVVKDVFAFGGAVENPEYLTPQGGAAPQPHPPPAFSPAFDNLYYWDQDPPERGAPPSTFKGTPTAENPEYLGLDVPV

[4] = target: T1, C-C chemokine receptor type 4 (Homo sapiens, UniProt P51679); type: cell membranes, Membrane; details: chem-1; note: in other assays of this panel Not Active means under 50% inhibition at 10 µM
T1 sequence (P51679 whole entry): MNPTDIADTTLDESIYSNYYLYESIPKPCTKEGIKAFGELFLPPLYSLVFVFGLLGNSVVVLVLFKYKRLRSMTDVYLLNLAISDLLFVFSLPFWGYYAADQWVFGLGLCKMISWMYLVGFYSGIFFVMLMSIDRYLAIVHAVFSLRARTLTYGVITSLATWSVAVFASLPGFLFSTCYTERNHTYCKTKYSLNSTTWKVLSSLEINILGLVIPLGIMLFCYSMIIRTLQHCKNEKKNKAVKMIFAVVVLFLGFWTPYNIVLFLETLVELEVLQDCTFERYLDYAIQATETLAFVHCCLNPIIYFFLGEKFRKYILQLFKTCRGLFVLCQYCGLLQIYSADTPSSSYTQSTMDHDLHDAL

[5] = DRUGMATRIX: Serotonin (5-Hydroxytryptamine) 5-HT3 radioligand binding (ligand: [3H] GR-65630); type: cell membranes, Membrane; details: hek293; Not Active = under 50% inhibition at 10 µM
[6] = target: cGMP-specific 3',5'-cyclic phosphodiesterase (Homo sapiens, UniProt O76074); assay: DRUGMATRIX: Phosphodiesterase PDE5 enzyme inhibition (substrate: [3H]cGMP + cGMP); type: tissue-based, Platelet; details: platelet; Not Active = under 50% inhibition at 10 µM
[7] = target: C-C chemokine receptor type 5 (Homo sapiens, UniProt P51681); type: cell membranes, Membrane; details: hek293; note: in other assays of this panel Not Active means under 50% inhibition at 10 µM
Sequence of C-C chemokine receptor type 5 (P51681 whole entry): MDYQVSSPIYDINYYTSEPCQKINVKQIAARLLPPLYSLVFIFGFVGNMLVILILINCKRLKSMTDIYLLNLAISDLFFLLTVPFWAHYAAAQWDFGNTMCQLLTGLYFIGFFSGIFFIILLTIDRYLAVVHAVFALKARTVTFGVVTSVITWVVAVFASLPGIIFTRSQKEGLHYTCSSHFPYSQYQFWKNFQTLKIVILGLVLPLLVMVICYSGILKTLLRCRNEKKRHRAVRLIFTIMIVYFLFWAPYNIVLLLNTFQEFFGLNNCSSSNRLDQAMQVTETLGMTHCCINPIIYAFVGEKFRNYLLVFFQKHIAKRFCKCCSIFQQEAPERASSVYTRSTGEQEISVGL

[8] = target: Glycine receptor (Rattus norvegicus, UniProt P22771+P24524+P07727+P20781); type: cell membranes, Wistar, Spinal cord, Membrane; note: in other assays of this panel Not Active means under 50% inhibition at 10 µM

Sequence of Cytochrome P450 2C19 (P33261 whole entry): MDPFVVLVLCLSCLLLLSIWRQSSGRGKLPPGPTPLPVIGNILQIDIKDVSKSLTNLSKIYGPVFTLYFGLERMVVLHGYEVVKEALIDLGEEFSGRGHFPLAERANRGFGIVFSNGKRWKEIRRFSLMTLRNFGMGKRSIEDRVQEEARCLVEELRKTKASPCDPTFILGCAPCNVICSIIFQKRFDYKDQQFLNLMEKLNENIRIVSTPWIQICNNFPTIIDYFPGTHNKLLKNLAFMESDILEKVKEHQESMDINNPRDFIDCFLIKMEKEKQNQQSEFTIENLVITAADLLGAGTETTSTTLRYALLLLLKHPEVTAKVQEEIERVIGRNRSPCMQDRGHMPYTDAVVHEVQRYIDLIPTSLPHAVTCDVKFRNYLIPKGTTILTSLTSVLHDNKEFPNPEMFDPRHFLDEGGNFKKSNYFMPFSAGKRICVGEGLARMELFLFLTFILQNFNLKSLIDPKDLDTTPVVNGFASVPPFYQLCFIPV
Sequence of Melanocortin receptor 4 (P32245 whole entry): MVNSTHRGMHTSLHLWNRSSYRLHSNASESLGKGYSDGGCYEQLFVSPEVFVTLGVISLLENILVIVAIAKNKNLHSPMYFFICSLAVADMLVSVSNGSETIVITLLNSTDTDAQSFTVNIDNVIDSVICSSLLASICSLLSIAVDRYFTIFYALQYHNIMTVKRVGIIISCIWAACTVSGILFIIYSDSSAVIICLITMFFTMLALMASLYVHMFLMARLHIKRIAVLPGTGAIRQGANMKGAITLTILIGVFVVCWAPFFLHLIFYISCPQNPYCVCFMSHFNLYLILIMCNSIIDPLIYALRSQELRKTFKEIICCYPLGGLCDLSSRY

COc1cccc2c1C(=O)c1c(O)c3c(c(O)c1C2=O)C[C@@](O)(C(C)=O)C[C@@H]3O[C@H]1C[C@H](N)[C@H](O)[C@H](C)O1 [DAUNORUBICIN]
Not Active: IC50 [1] | Ki [1] | IC50 [2] | IC50 [3] | IC50 [4] | IC50 [5] | Ki [5] | IC50 [6] | IC50 [7] | IC50 [8]

O=C(O)c1cc(-c2ccc(F)cc2F)ccc1O [DIFLUNISAL]
Not Active: IC50 [1] | Ki [1] | IC50 [2] | IC50 [3] | IC50 [4] | IC50 [5] | Ki [5] | IC50 [6] | IC50 [7] | IC50 [8]

C[S+](C)[O-] [DIMETHYL SULFOXIDE]
Not Active: IC50 [1] | Ki [1] | IC50 [2] | IC50 [3] | IC50 [4] | IC50 [5] | Ki [5] | IC50 [6] | IC50 [7] | IC50 [8]

CC1=NN(c2ccccc2)C(=O)C1 [EDARAVONE]
Not Active: IC50 [1] | Ki [1] | IC50 [2] | IC50 [3] | IC50 [4] | IC50 [5] | Ki [5] | IC50 [6] | IC50 [7] | IC50 [8]

CC(C)C[C@H]1C(=O)N2CCC[C@H]2[C@]2(O)O[C@](NC(=O)[C@@H]3C=C4c5cccc6[nH]cc(c56)C[C@H]4N(C)C3)(C(C)C)C(=O)N12 [ERGOCRYPTINE]
Not Active: IC50 [1] | Ki [1] | IC50 [2] | IC50 [3] | IC50 [4] | IC50 [5] | Ki [5] | IC50 [6] | IC50 [7] | IC50 [8]

C[C@]12CC[C@@H]3c4ccc(O)cc4CC[C@H]3[C@@H]1C[C@@H](O)[C@@H]2O [ESTRIOL]
Not Active: IC50 [1] | Ki [1] | IC50 [2] | IC50 [3] | IC50 [4] | IC50 [5] | Ki [5] | IC50 [6] | IC50 [7] | IC50 [8]

C#C[C@]1(O)CC[C@H]2[C@@H]3CCC4=CC(=O)CC[C@]4(C)[C@H]3CC[C@@]21C [ETHISTERONE]
Not Active: IC50 [1] | Ki [1] | IC50 [2] | IC50 [3] | IC50 [4] | IC50 [5] | Ki [5] | IC50 [6] | IC50 [7] | IC50 [8]

CC(O)(P(=O)(O)O)P(=O)(O)O [ETIDRONIC ACID]
Not Active: IC50 [1] | Ki [1] | IC50 [2] | IC50 [3] | IC50 [4] | IC50 [5] | Ki [5] | IC50 [6] | IC50 [7] | IC50 [8]

CN1CCN(c2c(F)cc3c(=O)c(C(=O)O)cn(CCF)c3c2F)CC1 [FLEROXACIN]
Not Active: IC50 [1] | Ki [1] | IC50 [2] | IC50 [3] | IC50 [4] | IC50 [5] | Ki [5] | IC50 [6] | IC50 [7] | IC50 [8]

O=c1[nH]c(=O)n([C@H]2C[C@H](O)[C@@H](CO)O2)cc1F [FLOXURIDINE]
Not Active: IC50 [1] | Ki [1] | IC50 [2] | IC50 [3] | IC50 [4] | IC50 [5] | Ki [5] | IC50 [6] | IC50 [7] | IC50 [8]

COC(=O)Nc1nc2cc(C(=O)c3ccc(F)cc3)ccc2[nH]1 [FLUBENDAZOLE]
Not Active: IC50 [1] | Ki [1] | IC50 [2] | IC50 [3] | IC50 [4] | IC50 [5] | Ki [5] | IC50 [6] | IC50 [7] | IC50 [8]

CC(=O)OCC(=O)[C@@]1(O)CC[C@H]2[C@@H]3CCC4=CC(=O)CC[C@]4(C)[C@@]3(F)[C@@H](O)C[C@@]21C [FLUDROCORTISONE ACETATE]
Not Active: IC50 [1] | Ki [1] | IC50 [2] | IC50 [3] | IC50 [4] | IC50 [5] | Ki [5] | IC50 [6] | IC50 [7] | IC50 [8]

CCOC(=O)c1ncn2c1CN(C)C(=O)c1cc(F)ccc1-2 [FLUMAZENIL]
Not Active: IC50 [1] | Ki [1] | IC50 [2] | IC50 [3] | IC50 [4] | IC50 [5] | Ki [5] | IC50 [6] | IC50 [7] | IC50 [8]

O=C(O)P(=O)(O)O [FOSCARNET]
Not Active: IC50 [1] | Ki [1] | IC50 [2] | IC50 [3] | IC50 [4] | IC50 [5] | Ki [5] | IC50 [6] | IC50 [7] | IC50 [8]

Cc1ccc(C)c(OCCCC(C)(C)C(=O)O)c1 [GEMFIBROZIL]
Not Active: IC50 [1] | Ki [1] | IC50 [2] | IC50 [3] | IC50 [4] | IC50 [5] | Ki [5] | IC50 [6] | IC50 [7] | IC50 [8]

O=c1c(-c2ccc(O)cc2)coc2cc(O)cc(O)c12 [GENISTEIN]
Not Active: IC50 [1] | Ki [1] | IC50 [2] | IC50 [3] | IC50 [4] | IC50 [5] | Ki [5] | IC50 [6] | IC50 [7] | IC50 [8]

CCC1=C(C)CN(C(=O)NCCc2ccc(S(=O)(=O)NC(=O)N[C@H]3CC[C@H](C)CC3)cc2)C1=O [GLIMEPIRIDE]
Not Active: IC50 [1] | Ki [1] | IC50 [2] | IC50 [3] | IC50 [4] | IC50 [5] | Ki [5] | IC50 [6] | IC50 [7] | IC50 [8]

Nc1cc(-c2ccncc2)c[nH]c1=O [INAMRINONE]
Not Active: IC50 [1] | Ki [1] | IC50 [2] | IC50 [3] | IC50 [4] | IC50 [5] | Ki [5] | IC50 [6] | IC50 [7] | IC50 [8]
